# Reference: paper PMC8187479, “Sugar phosphate activation of the stress sensor eIF2B” (Nature Communications, 2021)
# Biological target: T1, eIF2Bα (Homo sapiens, UniProt Q14232)
# T1 construct: made in house; host or cells: E. coli BL21(DE3)
# T1 sequence (Q14232 1-305): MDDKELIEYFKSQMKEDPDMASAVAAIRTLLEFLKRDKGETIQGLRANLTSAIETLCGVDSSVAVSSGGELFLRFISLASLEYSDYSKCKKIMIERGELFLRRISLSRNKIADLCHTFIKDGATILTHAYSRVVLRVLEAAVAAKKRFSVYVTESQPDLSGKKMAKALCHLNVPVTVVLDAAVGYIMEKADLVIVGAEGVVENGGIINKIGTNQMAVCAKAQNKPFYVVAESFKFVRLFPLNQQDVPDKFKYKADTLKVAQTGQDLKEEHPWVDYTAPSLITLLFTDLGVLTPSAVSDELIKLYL
# Assay: MIDAS (mass spectrometry integrated with equilibrium dialysis) metabolite binding screen
# Conditions: MIDAS metabolite binding screen with eIF2Bα; sheet "eIF2Ba"
# Experimental: Metabolites were combined into four defined screening pools. […] To the reverse side, 300 μL of 50 μM per metabolite pool was aliquoted and sealed (metabolite chamber). Loaded dialysis plates were placed in the dark at 4 °C on a rotating shaker (120 rpm) and incubated for 40 h. Post-dialysis, metabolites were isolated from each chamber by cold methanol extraction. Each sample was analyzed in technical triplicate by FIA-MS on a SCIEX X500R QTOF MS with interspersed blanks injections. The input metabolite pools were assayed at the beginning, middle, and end of each MS method batch for QC and normalization.
# MIDAS FIA-MS spectra were processed in SCIEX OS 1.6 software to determine metabolite abundances by integrating the mean area under the curve for each extracted ion chromatogram. For each dialysis replicate, log2(fold change) for each metabolite was calculated as the difference between the log2 abundance in the protein chamber and metabolite chamber. For each technical triplicate, up to one outlier was removed using a z-score cutoff of five (<0.1% of observations). The corrected technical replicates were collapsed to one mean fold-change summary per protein-metabolite pair. To remove fold-change variation that was not specific to a given metabolite-protein pair, the first three principal components of the total screening dataset were removed on a per metabolite pool basis by subtracting the projection of the first 3 principal components, creating log2(corrected fold change). Protein-metabolite z-scores were determined by comparing the target protein-metabolite log2(corrected fold change) to a no-signal model for that metabolite using measures of the central tendency (median) and standard deviation (extrapolated from the 25–75% quantiles), which are robust to the signals in the tails of a metabolite’s fold-change distribution. Z-scores were false-discovery rate controlled using Storey’s q-value (qvalue, R) and protein-metabolite interactions with q-values < 0.1 were considered significant.
row,Compound,log2(corrected fold change)
1,Nc1ncnc2c1ncn2[C@@H]1O[C@H](COP(=O)(O)OS(=O)(=O)O)[C@@H](OP(=O)(O)O)[C@H]1O [3-Phosphoadenosine 5-phosphosulfate],-0.003179
2,O=C(O)CC(O)CC(=O)O [3-hydroxypentanedioic acid],-0.0058
3,CC(C)C(=O)C(=O)O [3-methyl-2-oxobutyrate],-0.0499
4,"CC(=O)CC(=O)CCC(=O)O [4,6-Dioxoheptanoic acid]",-0.02657
5,NCCCC(=O)O [4-Aminobutanoate],0.0213
6,O=C(O)CNC(=O)Cc1ccc(O)cc1 [4-Hydroxyphenylacetylglycine],-0.008576
7,O=C(O)Cc1cnc[nH]1 [4-Imidazoleacetic acid],0.01796
8,Cc1ncc(CO)c(C(=O)O)c1O [4-Pyridoxic acid],0.06772
9,CN1c2c(nc(N)[nH]c2=O)NCC1CNc1ccc(C(=O)N[C@@H](CCC(=O)O)C(=O)O)cc1 (stereo partly shown) [5-Methyltetrahydrofolic acid],0.02128
10,Cc1cn([C@@H]2O[C@H](CO)[C@@H](O)[C@H]2O)c(=O)[nH]c1=O [5-Methyluridine],0.07915
11,O=P(O)(O)OCC1OC(OP(=O)(O)OP(=O)(O)O)C(O)C1O [5-Phospho-D-ribose 1-diphosphate],0.1645
12,C[C@H](O)[C@@H](O)[C@@H](O)[C@H](O)C(=O)O [6-Deoxy-L-galactonic acid],-0.02256
13,N[C@@H](C[C@@H](O)C(=O)O)C(=O)O [(4R)-4-Hydroxy-L-glutamic acid],-0.03114
14,CC(=O)NCC(=O)O [Acetylamino-acetic acid],0.03921
15,Nc1ncnc2c1ncn2[C@@H]1O[C@H](COP(=O)(O)OP(=O)(O)OP(=O)(O)O)[C@@H](O)[C@H]1O [Adenosine triphosphate],0.05437
16,Nc1ncnc2c1ncn2[C@@H]1O[C@H](CO)[C@@H](O)[C@H]1O [Adenosine],0.2973
17,Nc1ncnc2c1ncn2[C@@H]1O[C@H](COP(=O)(O)OP(=O)(O)NP(=O)(O)O)[C@@H](O)[C@H]1O [Adenyl imidodiphosphate],-0.08962
18,OC[C@@H](O)[C@@H](O)[C@@H](O)CO [Adonitol],0.006339
19,Cn1cncc1C[C@H](NC(=O)CCN)C(=O)O [Anserine],-0.02715
20,O=C1O[C@H]([C@@H](O)CO)C(O)=C1O [Ascorbate],0.01654
21,NCCC(=O)O [Beta-alanine],0.0004222
22,N[C@@H](CCCCNC(=O)CCCC[C@@H]1SC[C@@H]2NC(=O)N[C@@H]21)C(=O)O [Biocytin],-0.00281
23,CCCC(=O)SCCNC(=O)CCNC(=O)[C@H](O)C(C)(C)COP(=O)(O)OP(=O)(O)OC[C@H]1O[C@@H](n2cnc3c(N)ncnc32)[C@H](O)[C@@H]1OP(=O)(O)O [Butyryl coenzyme A],0.07019
24,Nc1ccn([C@@H]2O[C@H](COP(=O)(O)OP(=O)(O)OCC(O)CO)[C@@H](O)[C@H]2O)c(=O)n1 (stereo partly shown) [CDP-Glycerol],0.002705
25,NCCOP(=O)(O)OP(=O)(O)OC[C@H]1O[C@@H](n2ccc(N)nc2=O)[C@H](O)[C@@H]1O [CDP-ethanolamine],-0.00979
26,C[N+](C)(C)CCOP(=O)([O-])OC[C@H](O)CO [Choline glycerophosphate],-0.09086
27,O=C(O)[C@H]1C[C@@H](O)CN1 [Cis-4-Hydroxy-D-proline],0.008003
28,CC(O)(CC(=O)O)C(=O)O (stereo not shown) [Citramalate],-0.0058
29,O=C(O)CC(O)(CC(=O)O)C(=O)O [Citric acid],-0.01609
30,CC(C)(COP(=O)(O)OP(=O)(O)OC[C@H]1O[C@@H](n2cnc3c(N)ncnc32)[C@H](O)[C@@H]1OP(=O)(O)O)[C@@H](O)C(=O)NCCC(=O)NCCS [Coenzyme A],0.05668

# Same assay, conditions: MIDAS screen, sheet eIF2Ba; metabolites screened in pools 1-4; p-value and q-value given
row,Compound,log2(corrected fold change)
1,O=C(O)C(=O)CS(=O)(=O)O [3-Sulfopyruvic acid],-0.112
2,NC(=O)NCCC(=O)O [3-Ureidopropionic acid],0.07649
3,N=C(N)NCCCC(=O)O [4-Guanidinobutyric acid],0.2552
4,O=C(O)C(=O)CC(O)C(=O)O (stereo not shown) [4-Hydroxy-2-oxoglutaric acid],-0.1985
5,O=C(O)c1ccc(O)cc1 [4-Hydroxybenzoic acid],0.1295
6,O=C(O)Cc1ccc(O)cc1 [4-Hydroxyphenylacetic acid],-0.07366
7,O=C(O)C=Cc1c[nH]cn1 [4-Imidazoleacrylic acid],-0.125
8,CC(C)CC(=O)C(=O)O [4-Methyl-2-oxovaleric acid],-0.05419
9,CSCCC(=O)C(=O)O [4-Methylthio-2-oxobutanoic acid],0.0884
10,O=C(O)CCCc1ccccc1 [4-Phenylbutanoic acid],0.03839
11,N[C@@H](Cc1c[nH]c2ccc(O)cc12)C(=O)O [5-Hydroxy-L-tryptophan],-0.8537
12,COc1ccc2[nH]cc(CC(=O)O)c2c1 [5-Methoxy-3-indoleacetic acid],-0.03075
13,COc1ccc2[nH]cc(CCN)c2c1 [5-Methoxytryptamine],0.274
14,O=C(O)[C@H](O)[C@@H](O)[C@H](O)[C@H](O)COP(=O)(O)O [6-Phosphogluconic acid],-0.1601
15,C[C@@H](O)CC(=O)O [(R)-3-Hydroxybutyric acid],-0.1099
16,C[C@H](CO)C(=O)O [(R)-Hydroxyisobutyrate],0.07137
17,C[C@H](O)CC(=O)O [(S)-3-Hydroxybutyric acid],0.07137
18,C[C@@H](CO)C(=O)O [(S)-Hydroxyisobutyrate],0.07137
19,NC(=O)c1ncn([C@@H]2O[C@H](CO)[C@@H](O)[C@H]2O)c1N [AICAR],0.005355

row,Compound,log2(corrected fold change)
1,CC(=O)CC(=O)O [Acetoacetate],-0.05529
2,CC(=O)CC(=O)SCCNC(=O)CCNC(=O)[C@H](O)C(C)(C)COP(=O)(O)OP(=O)(O)OC[C@H]1O[C@@H](n2cnc3c(N)ncnc32)[C@H](O)[C@@H]1OP(=O)(O)O [Acetoacetyl coenzyme A],0.4297
3,CC(=O)SCCNC(=O)CCNC(=O)[C@H](O)C(C)(C)COP(=O)(O)OP(=O)(O)OC[C@H]1O[C@@H](n2cnc3c(N)ncnc32)[C@H](O)[C@@H]1OP(=O)(O)O [Acetyl coenzyme A],-0.09022
4,CC(=O)OCC[N+](C)(C)C [Acetylcholine],-0.07879
5,Nc1ncnc2[nH]cnc12 [Adenine],-0.2309
6,O=C(O)C[C@H](Nc1ncnc2c1ncn2[C@@H]1O[C@H](COP(=O)(O)O)[C@@H](O)[C@H]1O)C(=O)O [Adenylosuccinic acid],-0.03472
7,NCCCCN=C(N)N [Agmatine],0.1363
8,Nc1ccccc1C(=O)O [Anthranilate],-0.04243
9,C[N+](C)(C)CC=O [Betaine aldehyde hydrate],-0.08887
10,C[N+](C)(C)CC=O [Betaine aldehyde],-0.1426
11,C[N+](C)(C)CC(=O)O [Betaine],0.2268
12,NCCCCCN [Cadaverine],0.2219
13,C[N+](C)(C)CC(O)CC(=O)[O-] (stereo not shown) [Carnitine],-0.03799
14,C[N+](C)(C)CCO [Choline],-0.1774
15,Nc1c(C(=O)O)c2nc3c(C(=O)O)cccc3oc-2cc1=O [Cinnabarinic Acid],-0.1918
16,C/C(=C/C(=O)O)C(=O)O [Citraconic acid],0.0972
17,CN(CC(=O)O)C(=N)N [Creatine],0.06671
18,C/C=C/C(=O)SCCNC(=O)CCNC(=O)[C@H](O)C(C)(C)COP(=O)(O)OP(=O)(O)OC[C@H]1O[C@@H](n2cnc3c(N)ncnc32)[C@H](O)[C@@H]1OP(=O)(O)O [Crotonoyl coenzyme A],-2.153
